According to BigSolDB 2.1:

O=C(O)CN(CC(=O)O)CP(=O)(O)O
solubility (mole fraction)
Conditions | 293.15 K | 298.15 K | 303.15 K | 308.15 K | 313.15 K | 318.15 K | 323.15 K | 328.15 K | 333.15 K | 343.15 K
in acetone | 0.000176 | 0.000227 | 0.000273 | 0.000352 | 0.000445 | 0.000543 | – | – | – | –
in ethanol | – | 3.2e-05 | 7.85e-05 | 0.000102 | 0.000139 | 0.000196 | 0.000359 | – | 0.000733 | 0.00176
in ethyl acetate | 0.000528 | 0.000627 | 0.000791 | 0.000906 | 0.00138 | 0.00153 | 0.00176 | – | 0.00263 | 0.00419
in isopropanol | – | 4.94e-05 | 8.19e-05 | 0.000128 | 0.000248 | 0.000344 | 0.000648 | 0.000898 | 0.00131 | 0.00286
in methanol | – | – | 6.27e-05 | 8.57e-05 | 0.000118 | 0.000168 | 0.000243 | 0.000407 | 0.000588 | –
in n-butanol | 0.000113 | 0.000148 | 0.000186 | 0.000246 | 0.000299 | 0.000387 | 0.000831 | – | 0.00159 | 0.00342
in n-hexanol | 0.000966 | 0.00107 | 0.00116 | 0.00137 | 0.00155 | 0.00197 | 0.00233 | – | 0.00337 | 0.00499
in n-pentanol | 0.000125 | 0.000149 | 0.000186 | 0.00023 | 0.000377 | 0.000583 | 0.00105 | – | 0.00195 | 0.00392
in toluene | 0.00035 | 0.000386 | 0.000427 | 0.000645 | 0.00084 | 0.000991 | 0.00157 | – | 0.00248 | 0.0039
